Test results taken from ChEMBL document CHEMBL1177659, “Structure-based virtual screening, synthesis and SAR of novel inhibitors of hepatitis C virus NS5B polymerase” (Bioorg Med Chem, 2010).

Test system: Hepacivirus hominis
Assay: Inhibition of His-tagged recombinant NS5B Cdelta 21 polymerase expressed in Escherichia coli DH5alpha at 250 uM by standard primer dependent elongation assay relative to control

In order of rising inhibition:
1. N#Cc1nc(-c2ccccc2)c(-c2ccccc2)nc1C#N  48.6%
2. O=C(O)c1ccc2c(c1)C(=O)N(c1cccc(O)c1)C2=O  55%
3. O=c1oc2ccccc2c2c1ncn2-c1ccccc1  62.5%
4. O=C(O)CN1C(=O)/C(=C/c2ccc(C(F)(F)F)cc2)SC1=S  71%

Test system: not listed separately
Assay: Inhibition of His-tagged recombinant NS5B Cdelta 21 polymerase expressed in Escherichia coli DH5alpha by standard primer dependent elongation assay
Parameters: species or system Hepacivirus hominis

In order of falling IC50:
1. N#Cc1nc(-c2ccccc2)c(-c2ccccc2)nc1C#N  250 µM
2. O=C(O)c1ccc2c(c1)C(=O)N(c1cccc(O)c1)C2=O  200 µM
3. CC(C(=O)O)N1C(=O)/C(=C/c2cccc3ccccc23)SC1=S (centres undefined)  68.1 µM
4. O=C(O)CN1C(=O)/C(=C/c2cccc3ccccc23)SC1=S  61.4 µM
5. O=c1oc2ccccc2c2c1ncn2-c1ccccc1  60.2 µM
6. O=C(O)CCCN1C(=O)/C(=C/c2ccc(Cl)cc2Cl)SC1=S  58 µM
7. O=C(O)CN1C(=O)/C(=C/c2ccc(C(F)(F)F)cc2)SC1=S  55.2 µM
8. O=C(O)CN1C(=O)/C(=C/c2cccc(C(F)(F)F)c2)SC1=S  50.9 µM
9. CC(C)C(C(=O)O)N1C(=O)/C(=C/c2ccc(F)cc2)SC1=S (centres undefined)  42.9 µM
10. O=C(O)CN1C(=O)/C(=C/c2ccc(F)cc2)SC1=S  42.1 µM
11. CC(C)C(C(=O)O)N1C(=O)/C(=C/c2ccccc2Cl)SC1=S (centres undefined)  36.1 µM
12. CSCCC(C(=O)O)N1C(=O)/C(=C/c2ccc(Cl)cc2Cl)SC1=S (centres undefined)  29.2 µM
13. CCCC(C(=O)O)N1C(=O)/C(=C/c2ccc(Cl)cc2Cl)SC1=S (centres undefined)  28.2 µM
14. O=C1/C(=C/c2ccc(Cl)cc2Cl)SC(=S)N1CCS(=O)(=O)O  23.5 µM
15. O=C(O)CN1C(=O)/C(=C/c2ccc([N+](=O)[O-])cc2)SC1=S  21.9 µM
16. O=C(O)CN1C(=O)/C(=C/c2cccc(Br)c2)SC1=S  20.2 µM
17. O=C(O)CCN1C(=O)/C(=C/c2ccc(Cl)cc2Cl)SC1=S  19.9 µM
18. CC(C)CC(C(=O)O)N1C(=O)/C(=C/c2ccc(Cl)cc2Cl)SC1=S (centres undefined)  18.9 µM
19. O=C(O)CN1C(=O)/C(=C/c2cccc(Cl)c2)SC1=S  18.4 µM
20. O=C(O)CN1C(=O)/C(=C/c2ccc(Cl)cc2Cl)SC1=S  17.9 µM
21. CC(C)C(C(=O)O)N1C(=O)/C(=C/c2cccc3ccccc23)SC1=S (centres undefined)  16.9 µM
22. O=C(O)CN1C(=O)/C(=C/c2ccccc2[N+](=O)[O-])SC1=S  16.2 µM
23. O=C(O)CCCCCN1C(=O)/C(=C/c2ccc(Cl)cc2Cl)SC1=S  16.1 µM
24. CC(C)C(C(=O)O)N1C(=O)/C(=C/c2ccc(Cl)cc2Cl)SC1=S (centres undefined)  14.1 µM
25. CC(C(=O)O)N1C(=O)/C(=C/c2ccc(Cl)cc2Cl)SC1=S (centres undefined)  13.3 µM
26. O=C(O)C(Cc1ccccc1)N1C(=O)/C(=C/c2ccc(Cl)cc2Cl)SC1=S (centres undefined)  10.6 µM
27. O=C(O)CN1C(=O)/C(=C/c2ccc(Cl)c(Cl)c2)SC1=S  8.4 µM
28. O=C(O)CN1C(=O)/C(=C/c2cccc(Oc3ccccc3)c2)SC1=S  7.7 µM
29. CCc1ccc(/C=C2\SC(N[C@@H](C(=O)O)c3ccc(F)cc3)=NC2=O)o1 (stereo in doubt) [VALEANT]  3 µM
30. O=C1/C(=C/c2ccc(Cl)c(Cl)c2)SC(=S)N1NS(=O)(=O)c1ccccc1  0.2 µM
